In ChEMBL document CHEMBL5370629, “Probing the Interactions of Thiazole Abietane Inhibitors with the Human Serine Hydrolases ABHD16A and ABHD12” (ACS Med Chem Lett, 2023):

Tests used:
[1] = target: T1, Phosphatidylserine lipase ABHD16A (Homo sapiens) (UniProt O95870); experiment: Inhibition of azido-fluorophosphonate probe binding to human ABHD16A expressed in HEK293T cells at 100 uM incubated for 1 hr followed by azido-fluorophosphonate addition and measured after 1 hr by fluorescent Western blotting analysis relative to control; type: cell-based; settings: time 2.0 hrs
T1 sequence (whole entry): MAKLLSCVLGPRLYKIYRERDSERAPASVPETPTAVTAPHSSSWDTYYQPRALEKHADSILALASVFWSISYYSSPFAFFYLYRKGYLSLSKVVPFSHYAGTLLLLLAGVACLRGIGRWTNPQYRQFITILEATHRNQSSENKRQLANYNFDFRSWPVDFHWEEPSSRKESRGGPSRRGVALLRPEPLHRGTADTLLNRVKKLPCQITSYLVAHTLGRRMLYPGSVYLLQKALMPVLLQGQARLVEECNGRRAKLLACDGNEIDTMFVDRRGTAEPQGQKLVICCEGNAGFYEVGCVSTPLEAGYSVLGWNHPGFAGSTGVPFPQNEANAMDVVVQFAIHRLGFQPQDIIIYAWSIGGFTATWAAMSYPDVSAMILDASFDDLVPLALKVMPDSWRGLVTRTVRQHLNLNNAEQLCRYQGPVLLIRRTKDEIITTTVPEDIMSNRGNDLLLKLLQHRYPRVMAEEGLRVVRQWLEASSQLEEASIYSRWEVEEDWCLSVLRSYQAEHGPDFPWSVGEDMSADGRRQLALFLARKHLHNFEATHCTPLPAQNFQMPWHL

[2] = target: T2, Phosphatidylserine lipase ABHD16A (Mus musculus) (UniProt Q9Z1Q2); experiment: Inhibition of azido-fluorophosphonate probe binding to mouse ABHD16A expressed in HEK293T cells at 200 uM incubated for 1 hr followed by azido-fluorophosphonate addition and measured after 1 hr by fluorescent Western blotting analysis relative to control; type: cell-based; settings: time 2.0 hrs
T2 sequence (whole entry): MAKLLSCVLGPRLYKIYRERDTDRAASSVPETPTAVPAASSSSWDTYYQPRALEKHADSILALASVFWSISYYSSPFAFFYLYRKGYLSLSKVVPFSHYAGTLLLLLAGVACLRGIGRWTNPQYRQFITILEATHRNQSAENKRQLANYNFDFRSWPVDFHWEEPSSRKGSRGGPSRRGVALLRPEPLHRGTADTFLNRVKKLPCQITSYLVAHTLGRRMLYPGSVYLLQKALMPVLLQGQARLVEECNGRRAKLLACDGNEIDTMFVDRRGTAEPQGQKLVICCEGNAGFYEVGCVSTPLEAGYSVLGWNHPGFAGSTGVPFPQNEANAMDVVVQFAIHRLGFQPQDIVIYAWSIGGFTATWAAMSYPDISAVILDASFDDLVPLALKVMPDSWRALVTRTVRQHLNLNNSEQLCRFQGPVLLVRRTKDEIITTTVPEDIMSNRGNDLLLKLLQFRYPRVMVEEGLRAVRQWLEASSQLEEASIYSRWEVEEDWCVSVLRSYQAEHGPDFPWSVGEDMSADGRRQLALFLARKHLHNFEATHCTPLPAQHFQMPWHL

[3] = target: T2, Phosphatidylserine lipase ABHD16A (Mus musculus); experiment: Inhibition of azido-fluorophosphonate probe binding to mouse ABHD16A expressed in HEK293T cells at 20 to 100 uM incubated for 1 hr followed by azido-fluorophosphonate addition and measured after 1 hr by fluorescent Western blotting analysis relative to control; type: cell-based; settings: dose 20-100 µM, time 2.0 hrs
[4] = target: T3, Lysophosphatidylserine lipase ABHD12 (Homo sapiens, UniProt Q8N2K0); experiment: Inhibition of azido-fluorophosphonate probe binding to human ABHD12 expressed in HEK293T cells at 20 to 100 uM incubated for 1 hr followed by azido-fluorophosphonate addition and measured after 1 hr by fluorescent Western blotting analysis; type: toxicity, cell-based; settings: 2 h, dose 20-100 µM
T3 sequence (Q8N2K0 whole entry): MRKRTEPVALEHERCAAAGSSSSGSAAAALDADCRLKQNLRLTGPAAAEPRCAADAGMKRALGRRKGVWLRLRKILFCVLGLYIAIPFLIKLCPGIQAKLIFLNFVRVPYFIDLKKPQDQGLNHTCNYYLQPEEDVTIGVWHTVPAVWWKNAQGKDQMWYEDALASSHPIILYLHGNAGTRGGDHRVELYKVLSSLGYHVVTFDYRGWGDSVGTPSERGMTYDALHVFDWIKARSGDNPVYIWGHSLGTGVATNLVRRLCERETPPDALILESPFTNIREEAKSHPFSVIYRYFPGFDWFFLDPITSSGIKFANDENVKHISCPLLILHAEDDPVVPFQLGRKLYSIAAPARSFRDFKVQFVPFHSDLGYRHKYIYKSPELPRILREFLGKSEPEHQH

[5] = target: T1, Phosphatidylserine lipase ABHD16A (Homo sapiens); experiment: Inhibition of azido-fluorophosphonate probe binding to human ABHD16A expressed in HEK293T cells at 20 uM incubated for 1 hr followed by azido-fluorophosphonate addition and measured after 1 hr by fluorescent Western blotting analysis relative to control; type: cell-based; settings: time 2.0 hrs
[6] = target: T2, Phosphatidylserine lipase ABHD16A (Mus musculus); experiment: Inhibition of azido-fluorophosphonate probe binding to mouse ABHD16A expressed in HEK293T cells at 20 uM incubated for 1 hr followed by azido-fluorophosphonate addition and measured after 1 hr by fluorescent Western blotting analysis relative to control; type: cell-based; settings: time 2.0 hrs
[7] = target: T4, ABHD12 (lysophosphatidylserine lipase) (Homo sapiens, UniProt Q8N2K0); experiment: Inhibition of azido-fluorophosphonate probe binding to human ABHD12 expressed in HEK293T cells at 20 uM incubated for 1 hr followed by azido-fluorophosphonate addition and measured after 1 hr by fluorescent Western blotting analysis relative to control; type: toxicity, cell-based; settings: HEK293T cells that express human ABHD12, probe azido-fluorophosphonate
T4 sequence (Q8N2K0 whole entry): T3 sequence (Q8N2K0 whole entry)

[8] = target: T4, ABHD12 (lysophosphatidylserine lipase); experiment: Inhibition of azido-fluorophosphonate probe binding to human ABHD12 expressed in HEK293T cells at 100 uM incubated for 1 hr followed by azido-fluorophosphonate addition and measured after 1 hr by fluorescent Western blotting analysis relative to control; type: toxicity, cell-based; settings: HEK293T cells that express human ABHD12, probe azido-fluorophosphonate

CC(C)c1cc2c(cc1-c1csc([C@H](C)O)n1)[C@@]1(C)CCC[C@@](C)(C(N)=O)[C@@H]1CC2
inhibition [1]: 37.6% | inhibition [2]: 59.8%

CC(C)c1cc2c(cc1-c1csc([C@H](C)O)n1)[C@@]1(C)CCCC(C)(C)[C@@H]1CC2
inhibition [3]: 34.1% | inhibition (INH) [4]: Not Active

COC(=O)[C@]1(C)CCC[C@]2(C)c3cc(-c4csc(COC(C)=O)n4)c(C(C)C)cc3CC[C@@H]12
inhibition [1]: 48.4% | inhibition [2]: 62.9%

COC(=O)[C@]1(C)CCC[C@]2(C)c3cc(-c4csc(C)n4)c(C(C)C)cc3C(=O)C[C@@H]12
inhibition [5]: 32.2% | inhibition [1]: 55.1% | inhibition [2]: 73.2%

CC(=O)c1nc(-c2cc3c(cc2C(C)C)CC[C@H]2[C@](C)(C(N)=O)CCC[C@]32C)cs1
inhibition [6]: 55.5% | inhibition [5]: 33.5% | inhibition [1]: 45.5% | inhibition [2]: 83.5%

COC(=O)[C@]1(C)CCC[C@]2(C)c3cc(-c4csc([C@H](C)O)n4)c(C(C)C)cc3CC[C@@H]12
inhibition [5]: 35.7% | inhibition at 2 h, 20 µM [7]: 54% | inhibition at 2 h, 100 µM [8]: 60.9% | inhibition [1]: 48% | inhibition [2]: 66.4%
